From patent publication US20250206704A1, “ENGINEERED IONOPHORES FOR TRANSPORT OF METAL IONS” (The Brigham and Women's Hospital, Inc., priority 2022, published 2025) come the findings set out here.

One assay has as its system U2OS cells. Briefly: ICP-MS analysis of intracellular Zn(II) in U2OS cells. The assay is classed as cell-based. Conditions: 10 μM Zn(II) and 5 μM compound, 1 hour. Here is the method:
Next, Applicants used inductively coupled plasma mass spectrometry (ICP-MS) to validate the imaging assay and the ionophores activity (FIG. 1F). While the intracellular Zn^II levels where similar between DMSO and chelator 1, Zn^II concentrations inside cells were 3-fold higher when Applicants co-treated ionophores 8 and 9.
U2OS cells (˜200,000) were plated in a 6-well dish. After a day, the medium was aspirated, and Zn(II) (10 μM) and compounds (5 μM) containing media (2 mL) were added to each appropriate well. Cells were harvested by first washing each well with PBS containing EDTA (100 μM, 2×2.0 mL) and subsequently adding Milli-Q water ([…] to each well and incubating for 2-4 min. A portion of the resulting cell lysate (900 μL) was collected and transferred to an Eppendorf Safe-Lock tube, snap-frozen in N2(l), and then thawed at room temperature (RT) for a total of three freeze-thaw cycles. The insoluble lysate was pelleted (10 min at 10,000 g), and the soluble protein concentration of each sample was determined using the Pierce 660 nm Protein Assay in a 96-well plate (200 μL of reagent, 14 μL of sample, bovine serum albumin standard curve). Samples were then frozen and lyophilized overnight, and the resulting white, flaky solid was taken up in concentrated nitric acid (200 μL, ultrapure for trace metal analysis, BDH Aristar) and heated at 70° C. for 1 h. A portion of each sample (142 μL) was then diluted with water (2 mL) and a terbium internal standard (Agilent 5190-8590; stock at 10,000 parts per billion [ppb] in 10% nitric acid diluted to 100 ppb in Milli-Q water for addition to samples, 2 ppb final concentration), after which the metal content of the samples was assessed by ICP-MS. […] Therefore, 1 ppb was taken to be equal to 1 μg/L, and the molarity of a particular solution was considered equal to the measured concentration of a particular ion in ppb, divided by the molecular weight of the ion, multiplied by 10-6.

Assay [1] relates to Staphylococcus epidermidis. Briefly: MIC, broth microdilution. The format is cell-based. From the text:
Next, Applicants evaluated the antibacterial activities of the ionophores. First, Applicants determined their minimum inhibitory concentration (MIC) in the gram-positive bacterium that causes hospital-acquired infections, Staphylococcus epidermidis.
Applicants reasoned that limiting extracellular zinc with EDTA would abolish ionophore activity by depleting the available metal ions for membrane transport. […] [24]
Staphylococcus epidermidis ATCC® 12228™, Staphylococcus caprae ATCC® 51549™, Bacillus subtilis ATCC® 6051™, and Bacillus cereus ATCC® 14579™ were grown in cation-adjusted Mueller-Hinton broth (CA-MHB) (catalog no. 90922, Sigma) as per the Clinical and Laboratory Standards Institute guidelines.2 Bacteria were routinely grown at 37° C. under aerobic conditions.
The MIC assay was performed according to the Clinical and Laboratory Standards Institute protocols.^3 The antibacterial activities of the compounds were measured using the broth microdilution method. Serial dilutions of compounds were prepared in cation-adjusted Müller Hinton Broth. Each dilution (100 μL) was dispensed to each well of a round-bottom plate to obtain final concentrations ranging from 0.07815-40 μM. Bacteria were grown at 37° C. overnight on cation-adjusted Müller Hinton Broth. The bacterial solution was prepared in 0.9% saline and adjusted to obtain an OD600=0.1 using a SpectraMax M5 (Molecular Devices). The resultant suspension was diluted 1:20 with cation-adjusted Müller Hinton Broth. The resulting mixture (10 μL) was added to each well of the plates (approximately 5×10^4 CFU/well), mixed, and incubated at 37° C. for 24 h. The MIC value was determined as the minimum concentration that inhibited the growth of bacteria.
For orientation: Dilution methods test growth across graded concentrations, often in twofold steps.

A short description of assay [2]: Co-incubation kinetic study of ligand exchange with DA-ZP1 in presence of compound and Zn(II). The following applies: 10 μM compound with 10 μM Zn^II, then 5 μM DA-ZP1. The assay is classed as physicochemical. The procedure:
The compound in phosphate-buffered saline (PBS) was added to a 96-well microplate (250 μL, 10 μM per well, Nunc 96-well plates) and incubated with 10 μM of ZnCl2. […] Reaction kinetics were monitored by measuring the fluorescence of the activated fluorescein dye (λex=490 nm, λem=522 nm) over 2 h.

Setting [3] is: Table 4, read-out: Strain MIC S. epidermidis.

Molecules are shown by their SMILES. Values after ≈ are worked out from the molar mass of the structure shown. Where two headings read alike, the source gives them in different places.

In the case of `CC(C)(C)[Si](C)(C)c1cccc(CN(Cc2ccccn2)Cc2ccccn2)c1O` [Compound 8, 2-((bis(pyridin-2-ylmethyl)amino)methyl)-6-(tert-butyldimethylsilyl)phenol], the “intracellular Zn^II level relative to DMSO” value in the assay with U2OS cells was 3 fold. Further, the figures for the MIC in assay [1] (setting [3]) and in assay [1] (read-out: MIC) were 4.2 mg/L (≈ 10 µM) and around 4.2 mg/L (≈ 10 µM), respectively.
For `CC(C)[Si](c1cccc(CN(Cc2ccccn2)Cc2ccccn2)c1O)(C(C)C)C(C)C` [Compound 9, 2-((bis(pyridin-2-ylmethyl)amino)methyl)-6-(triisopropylsilyl)phenol], the “intracellular Zn^II level relative to DMSO” value with U2OS cells is 3 fold. The “ligand exchange with DA-ZP1 (fluorescence increase)” value in assay [2] is reported as “rapid increase in fluorescence”. The “change of MIC with additional Zn^II in the media” value in assay [1] is reported as “unaltered”. Also, the “change of MIC in presence of EDTA” value in assay [1] (50 μM EDTA) was “dramatically increased”. Besides, the MIC in assay [1] (setting [3]) was 1.2 mg/L (≈ 2.6 µM); in assay [1] (read-out: MIC) it was around 1.2 mg/L (≈ 2.6 µM).

As a reminder, the MIC is the lowest concentration that inhibits growth of the organism.
